Source: patent publication US9113629B2, “4-amino-6-(4-substituted-phenyl)-picolinates and 6-amino-2-(4-substituted-phenyl)-pyrimidine-4-carboxylates and their use as herbicides” (DOW AGROSCIENCES LLC, priority 2013, dated 2015)
Like-named read-outs stand apart in the source and are kept apart here.

Assays:
[1] = test system: SASKR: Russian thistle (Salsola iberica); assay: Post-emergent Test III, herbicidal activity in wheat and barley; type: in vivo; settings: for pest or weed control at 35 g/ha / pest or weed control at 70 g/ha / pest or weed control at 140 g/ha: Salsola tragus, post-emergence, 504 h; for pest or weed control at 35 g/ha: 35 g ai/ha; for pest or weed control at 70 g/ha: 70 g ai/ha; for GR50 SASKR: dose for 50 percent growth reduction; for GR50 SASKR / GR80 SASKR: probit analysis; for GR80 SASKR: dose for 80 percent growth reduction; for pest or weed control at 140 g/ha: 140 g ai/ha
In short: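 Plants at the second to third true-leaf stage, grown in a greenhouse at about 18/17 °C with a 14 h photoperiod, were sprayed post-emergence at 187 L/ha with the high rate and ½× to 1/16× serial dilutions in an acetone/DMSO/crop-oil/surfactant carrier. Injury was rated visually at 21 d on a 0–100% scale, and GR20–GR90 were derived by probit analysis.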

TRZSS = assay: Pre-emergent Test III, preemergent activity in wheat and barley; type: in vivo, Triticum aestivum
Method: (§1) Pre-emergent Test III. Seeds of test species were planted into square plastic pots (10 cm wide) containing sandy loam soil. After planting, all pots were sub-irrigated 16 h prior to compound application. A weighed amount, determined by the highest rate to be tested, of each test compound was placed in a 25 mL glass vial and was dissolved in 4 mL of a 97:3 v/v mixture of acetone and DMSO to obtain concentrated stock solutions. […] The concentrated stock solutions obtained were diluted with 20 mL of an aqueous mixture containing water and 0.02% w/v (weight/volume) of Triton X-155 to obtain spray solutions containing the highest application rates. Additional application rates were obtained by serial dilution of 12 mL of the high rate solution into a solution containing 2 mL of 97:3 v/v mixture of acetone and DMSO and 10 mL of an aqueous mixture containing water and 0.02% w/v (weight/volume) of Triton X-155 to obtain 1⁄2×, 1⁄4×, 1⁄8× and 1/16× rates of the high rate. Compound requirements are based upon a 12 mL application volume at a rate of 187 liters per hectare (L/ha). Formulated compounds were applied to the soil surface with an overhead Mandel track sprayer equipped with […] nozzles calibrated to deliver 187 L/ha over an application area of 0.503 square meters. Control pots were sprayed in the same manner with the solvent blank. The treated pots and control pots were placed in a greenhouse as described above and watered through surface irrigation. After 21 d, the condition of the test pots as compared with that of the untreated pots was determined visually and scored on a scale of 0 to 100 percent where 0 corresponds to no herbicidal effect and 100 corresponds to plant death or lack of emergence from the soil. By applying the well-accepted probit analysis as described by J. Berkson in Journal of the American Statistical Society, 48, 565 (1953) and by D. Finney in “Probit Analysis” Cambridge University Press (1952), the above data can be used to calculate GR20, GR50, GR80 and GR90 values, which are defined as growth reduction factors that correspond to the effective dose of herbicide required to kill or control 20 percent, 50 percent, 80 percent or 90 percent, respectively, of a target plant.

HORSS = assay: as above; type: in vivo, Hordeum vulgare
Method: as §1

APESV = assay: as above; type: in vivo, Apera spica-venti
Method: as §1

LAMSS = assay: as above; type: in vivo
Method: as §1

LOLSS = assay: as above; type: in vivo, Lolium multiflorum, Lolium rigidum
Method: as §1

SETVI = assay: as above; type: in vivo, Setaria viridis
Method: as §1

[2] = Table 8, post-emergent, 21 d, read-out: Visual Growth Reduction (%) 21 Days After Application SASKR
[3] = 21 days after application, read-out: Visual Gorowth Reduction (%) 21 days After Application SASKR
[4] = 21 days after application, dose to kill or control 20%, probit analysis
[5] = 21 days after application, dose to kill or control 50%, probit analysis
[6] = 21 days after application, dose to kill or control 80%, probit analysis

SMILES: COC(=O)c1nc(-c2ccc(I)c(F)c2)c(C)c(N)c1Cl [Compound 79, Methyl 4-amino-3-chloro-6-(3-fluoro-4-iodophenyl)-5-methylpicolinate]
- pest or weed control at 35 g/ha [1, 2]: 75 to 84%
- pest or weed control at 70 g/ha [1, 2]: 85 to 94%
- GR50 SASKR ([1]; Table 8, 21 d): 11 g ai/ha
- GR80 SASKR ([1]; Table 8, 21 d): 43 g ai/ha

SMILES: C=Cc1c(C(=O)O)nc(-c2ccc(C(F)(F)F)c(F)c2)c(F)c1N [Compound 86]
- pest or weed control at 35 g/ha [1, 3]: 60 to 74%
- pest or weed control at 70 g/ha [1, 3]: 75 to 84%
- GR50 SASKR ([1]; 21 days after application): 18 g ai/ha
- GR80 SASKR ([1]; 21 days after application): 66 g ai/ha

SMILES: Nc1cc(-c2ccc(I)cc2F)nc(C(=O)O)c1Cl [Compound 124]
- pest or weed control at 35 g/ha [1, 2]: 60 to 74%
- pest or weed control at 70 g/ha [1, 2]: 85 to 94%
- GR50 SASKR ([1]; Table 8, 21 d): 12 g ai/ha
- GR80 SASKR ([1]; Table 8, 21 d): 53 g ai/ha

SMILES: COC(=O)c1nc(-c2ccc(C#N)c(F)c2)c(F)c(N)c1Cl [Compound 135, methyl 4-amino-3-chloro-6-(4-cyano-3-fluorophenyl)-5-fluoropicolinate]
- pest or weed control at 35 g/ha [1, 2]: 60 to 74%
- pest or weed control at 70 g/ha [1, 2]: 60 to 74%
- pest or weed control at 140 g/ha [1, 2]: 75 to 84%
- GR50 SASKR ([1]; Table 8, 21 d): 3 g ai/ha
- GR80 SASKR ([1]; Table 8, 21 d): >140 g ai/ha

SMILES: Nc1c(Cl)c(C(=O)O)nc(-c2ccc(I)c(F)c2)c1Cl [Compound 145, 4-Amino-3,5-dichloro-6-(3-fluoro-4-iodophenyl)picolinic acid]
- pest or weed control at 35 g/ha [1, 2]: 60 to 74%
- pest or weed control at 70 g/ha [1, 2]: 75 to 84%
- pest or weed control at 140 g/ha [1, 2]: 85 to 94%
- GR80 SASKR ([1]; Table 8, 21 d): 79 g ai/ha

SMILES: Nc1c(F)c(-c2ccc(Br)c(F)c2F)nc(C(=O)O)c1Cl [Compound 147]
- Visual Growth Reduction (%) 21 Days After Application, TRZSS (TRZSS; 35 g ai/ha): F (30-44)
- Visual Growth Reduction (%) 21 Days After Application, TRZSS (TRZSS; 70 g ai/ha): F (30-44)
- GR20 TRZSS (TRZSS; [4]): 23 g ai/ha
- Visual Growth Reduction (%) 21 Days After Application, HORSS (HORSS; 35 g ai/ha): G (0-29)
- Visual Growth Reduction (%) 21 Days After Application, HORSS (HORSS; 70 g ai/ha): G (0-29)
- GR20 HORSS (HORSS; [4]): 70 g ai/ha
- Visual Growth Reduction (%) 21 Days After Application, APESV (APESV; 35 g ai/ha): C (75-84)
- Visual Growth Reduction (%) 21 Days After Application, APESV (APESV; 70 g ai/ha): B (85-94)
- GR50 APESV (APESV; [5]): 19 g ai/ha
- GR80 APESV (APESV; [6]): 33 g ai/ha
- Visual Growth Reduction (%) 21 Days After Application, LAMSS (LAMSS; 35 g ai/ha): A (95-100)
- Visual Growth Reduction (%) 21 Days After Application, LAMSS (LAMSS; 70 g ai/ha): A (95-100)
- GR50 LAMSS (LAMSS; [5]): 1 g ai/ha
- GR80 LAMSS (LAMSS; [6]): 5 g ai/ha
- Visual Growth Reduction (%) 21 Days After Application, LOLSS (LOLSS; 35 g ai/ha): G (0-29)
- Visual Growth Reduction (%) 21 Days After Application, LOLSS (LOLSS; 70 g ai/ha): G (0-29)
- GR50 LOLSS (LOLSS; [5]): 52 g ai/ha
- GR80 LOLSS (LOLSS; [6]): >70 g ai/ha
- Visual Growth Reduction (%) 21 Days After Application, SETVI (SETVI; 35 g ai/ha): E (45-59)
- Visual Growth Reduction (%) 21 Days After Application, SETVI (SETVI; 70 g ai/ha): C (75-84)
- GR50 SETVI (SETVI; [5]): 17 g ai/ha
- GR80 SETVI (SETVI; [6]): >70 g ai/ha

SMILES: COC(=O)c1nc(-c2ccc(Br)c(F)c2)nc(N)c1OC [Compound 171, Methyl 6-amino-2-(4-bromo-3-fluorophenyl)-5-methoxypyrimidine-4-carboxylate]
- pest or weed control at 35 g/ha [1, 2]: 60 to 74%
- pest or weed control at 70 g/ha [1, 2]: 75 to 84%
- GR50 SASKR ([1]; Table 8, 21 d): 21 g ai/ha
- GR80 SASKR ([1]; Table 8, 21 d): 67 g ai/ha
